Results: ChEMBL document CHEMBL1138724, “Synthesis and anticonvulsant activity of new 2-substituted-5- [2-(2-fluorophenoxy)phenyl]-1,3,4-oxadiazoles and 1,2,4-triazoles” (Bioorg Med Chem Lett, 2004)

Assays:
Mus musculus [1] = assay: Effective dose required to protect mice against convulsion induced by a lethal dose of PTZ (100 mg/kg) was determined; type: functional
[2] = Lethal dose in mice; type: toxicity; conditions: mouse, in vivo
Mus musculus [3] = organism: Mus musculus; assay: Effective dose required to protect mice against convulsion induced electroshock was determined by MES test; type: functional
Mus musculus [4] = assay: Effective dose required to protect mice against convulsion induced by a lethal dose of PTZ (100 mg/kg) was determined in the presence of 10 mg/kg flumazenil; type: functional
Mus musculus [5] = assay: Effective dose required to protect mice against convulsion induced electroshock was determined by MES test in the presence of 10 mg/kg flumazenil

Row | Compound | ED50 (Mus musculus [1]) [mg/kg] | LD50 [2] [mg/kg] | ED50 (Mus musculus [3]) [mg/kg] | ED50 (Mus musculus [4]) [mg/kg] | ED50 (Mus musculus [5]) [mg/kg]
1 | CCOc1n[nH]c(-c2ccccc2Oc2ccccc2F)n1 | 84.8 | > 300 | – | – | –
2 | Fc1ccccc1Oc1ccccc1-c1nnc(S)o1 | > 100 | > 300 | 43.1 | – | –
3 | Nc1nnc(-c2ccccc2Oc2ccccc2F)o1 | – | > 300 | 9.57 | 39.2 | –
4 | Fc1ccccc1Oc1ccccc1-c1n[nH]c(S)n1 | > 100 | > 300 | 92 | – | –
5 | Oc1nnc(-c2ccccc2Oc2ccccc2F)o1 | – | > 300 | > 100 | – | –
6 | CSc1nnc(-c2ccccc2Oc2ccccc2F)o1 | – | > 300 | > 100 | – | –
7 | CN1C(=O)CN=C(c2ccccc2)c2cc(Cl)ccc21 [DIAZEPAM] | 1.87 | – | – | – | 1.57
